Source: US11040962B2, “Pesticidally active pyrazole derivatives” (SYNGENTA PARTICIPATIONS AG, priority 2017, dated 2021)

Columns and labels:
Type in all cases: in vivo
Plutella xylostella = Plutella xylostella (diamond back moth) artificial diet test; conditions: 120 h, application rate 200 ppm, L2 larvae, 5 days after infestation, vs untreated, read-out: effect in at least one of the two categories (mortality or growth inhibition)
Method: Plutella xylostella (Diamond Back Moth):
24-well microtiter plates with artificial diet were treated with aqueous test solutions prepared from 10′000 ppm DMSO stock solutions by pipetting. After drying, the plates were infested with L2 larvae (10 to 15 per well). The samples were assessed for mortality and growth inhibition in comparison to untreated samples 5 days after infestation. The following compounds gave an effect of at least 80% in at least one of the two categories (mortality or growth inhibition) at an application rate of 200 ppm: 1, 2, 3, 4, 7, 8, 9, 10, 11, 12, 13, 14, 15, 16, 17, 18, 19, 20, 21, 22, 23, 24, 26, 27, 28 and 29.

Thrips tabaci = Thrips tabaci (onion thrips) sunflower leaf disc spray test; conditions: foliar, 144 h, application rate 200 ppm, population of mixed ages, 6 days after infestation
Method: Thrips tabaci (Onion Thrips):
Sunflower leaf discs were placed on agar in 24-well microtiter plates and sprayed with aqueous test solutions prepared from 10′000 ppm DMSO stock solutions. After drying the leaf discs were infested with a Thrips population of mixed ages. The samples were assessed for mortality 6 days after infestation.

Spodoptera littoralis = Spodoptera littoralis (Egyptian cotton leaf worm) cotton leaf disc spray test; conditions: foliar, 72 h, application rate 200 ppm, L1 larvae, 3 days after infestation, vs untreated, read-out: control (at least one of mortality, anti-feedant effect, growth inhibition)
Method: Spodoptera littoralis (Egyptian Cotton Leaf Worm)
Cotton leaf discs were placed on agar in 24-well microtiter plates and sprayed with aqueous test solutions prepared from 10′000 ppm DMSO stock solutions. After drying the leaf discs were infested with five L1 larvae. The samples were assessed for mortality, anti-feedant effect, and growth inhibition in comparison to untreated samples 3 days after infestation. Control of Spodoptera littoralis by a test sample is when at least one of mortality, anti-feedant effect, and growth inhibition is higher than the untreated sample.

Diabrotica balteata = Diabrotica balteata (corn root worm) maize sprout spray test; conditions: 96 h, application rate 200 ppm, L2 larvae, 4 days after infestation, vs untreated, read-out: effect in at least one of the two categories (mortality or growth inhibition)
Method: Diabrotica balteata, (Corn Root Worm)
Maize sprouts, placed on an agar layer in 24-well microtiter plates were treated with aqueous test solutions prepared from 10′000 ppm DMSO stock solutions by spraying. After drying, the plates were infested with L2 larvae (6 to 10 per well). The samples were assessed for mortality and growth inhibition in comparison to untreated samples 4 days after infestation. The following compounds gave an effect of at least 80% in at least one of the two categories (mortality or growth inhibition) at an application rate of 200 ppm: 1, 2, 3, 4, 7, 8, 9, 11, 12, 13, 14, 15, 16, 17, 18, 19, 20, 21, 27, 28 and 29.

Cn1nc(C(F)(F)C(F)(F)F)c(C(F)(F)F)c1-n1cc(-c2cc(C(=O)NC3(C#N)CC3)c(Cl)s2)nn1 [Compound 10, 2-chloro-N-(1-cyanocyclopropyl)-5-[1-[2-methyl-5-(1,1,2,2,2-pentafluoroethyl)-4-(trifluoromethyl)pyrazol-3-yl]triazol-4-yl]thiophene-3-carboxamide]
≥ 80%: percent effect (mortality or growth inhibition) at 200 ppm (Plutella xylostella) | mortality at 200 ppm (Thrips tabaci) | percent control (mortality, anti-feedant effect or growth inhibition) at 200 ppm (Spodoptera littoralis)

CN(C(=O)c1cc(-c2cn(-c3c(C(F)(F)F)c(C(F)(F)C(F)(F)F)nn3C)nn2)sc1Cl)C1(C#N)CC1 [Compound 11, 2-chloro-N-(1-cyanocyclopropyl)-N-methyl-5-[1-[2-methyl-5-(1,1,2,2,2-pentafluoroethyl)-4-(trifluoromethyl)pyrazol-3-yl]triazol-4-yl]thiophene-3-carboxamide]
≥ 80%: percent effect (mortality or growth inhibition) at 200 ppm (Plutella xylostella) | mortality at 200 ppm (Thrips tabaci) | percent effect (mortality or growth inhibition) at 200 ppm (Diabrotica balteata) | percent control (mortality, anti-feedant effect or growth inhibition) at 200 ppm (Spodoptera littoralis)

Cn1nc(C(F)(F)C(F)(F)F)c(C(F)(F)F)c1-c1cc(-c2cc(C(=O)NC3CC3)c(Cl)s2)on1 [Compound 19, 2-chloro-N-cyclopropyl-5-[3-[2-methyl-5-(1,1,2,2,2-pentafluoroethyl)-4-(trifluoromethyl)pyrazol-3-yl]isoxazol-5-yl]thiophene-3-carboxamide]
≥ 80%: percent effect (mortality or growth inhibition) at 200 ppm (Plutella xylostella) | percent effect (mortality or growth inhibition) at 200 ppm (Diabrotica balteata) | percent control (mortality, anti-feedant effect or growth inhibition) at 200 ppm (Spodoptera littoralis)

CN(C(=O)c1cc(-c2cc(-c3c(C(F)(F)F)c(C(F)(F)C(F)(F)F)nn3C)no2)sc1Cl)C1CC1 [Compound 20, 2-chloro-N-cyclopropyl-N-methyl-5-[3-[2-methyl-5-(1,1,2,2,2-pentafluoroethyl)-4-(trifluoromethyl)pyrazol-3-yl]isoxazol-5-yl]thiophene-3-carboxamide]
≥ 80%: percent effect (mortality or growth inhibition) at 200 ppm (Plutella xylostella) | mortality at 200 ppm (Thrips tabaci) | percent effect (mortality or growth inhibition) at 200 ppm (Diabrotica balteata) | percent control (mortality, anti-feedant effect or growth inhibition) at 200 ppm (Spodoptera littoralis)

Cn1nc(C(F)(F)C(F)(F)F)c(C(F)(F)F)c1-c1cc(-c2cc(C(=O)NC3(C#N)CC3)c(Cl)s2)on1 [Compound 22, 2-chloro-N-(1-cyanocyclopropyl)-5-[3-[2-methyl-5-(1,1,2,2,2-pentafluoroethyl)-4-(trifluoromethyl)pyrazol-3-yl]isoxazol-5-yl]thiophene-3-carboxamide]
≥ 80%: percent effect (mortality or growth inhibition) at 200 ppm (Plutella xylostella)

CN(C(=O)c1cc(-c2cc(-c3c(C(F)(F)F)c(C(F)(F)C(F)(F)F)nn3C)no2)sc1Cl)C1(C#N)CC1 [Compound 23, 2-chloro-N-(1-cyanocyclopropyl)-N-methyl-5-[3-[2-methyl-5-(1,1,2,2,2-pentafluoroethyl)-4-(trifluoromethyl)pyrazol-3-yl]isoxazol-5-yl]thiophene-3-carboxamide]
≥ 80%: percent effect (mortality or growth inhibition) at 200 ppm (Plutella xylostella) | mortality at 200 ppm (Thrips tabaci) | percent control (mortality, anti-feedant effect or growth inhibition) at 200 ppm (Spodoptera littoralis)

CCN(C(=O)c1cc(-c2cc(-c3c(C(F)(F)F)c(C(F)(F)C(F)(F)F)nn3C)no2)sc1Cl)C1(C#N)CC1 [Compound 24]
≥ 80%: percent effect (mortality or growth inhibition) at 200 ppm (Plutella xylostella) | mortality at 200 ppm (Thrips tabaci) | percent control (mortality, anti-feedant effect or growth inhibition) at 200 ppm (Spodoptera littoralis)
